{"source": "a melting point compilation (Tetko et al.; mined from patent text by program, amines drawn as free bases though some values may be those of a salt)", "data": [{"units": {"melting point": "°C"}, "values": [{"smiles": "OC(CCl)Cn1c2ccccc2c2cc(-c3ccc4c(c3)c3ccccc3n4CC(O)CCl)ccc21", "note": "(stereo not given)", "melting point": "152 to 153"}, {"smiles": "CCc1cccc2c3c([nH]c12)[C@@]1(CC(=O)O)CC[C@H]1CC3", "note": "(relative stereo)", "melting point": "170 to 171"}, {"smiles": "Cc1cc(C)c(/C=C/[C@H]2C[C@H](O)CC(=O)O2)c(-c2ccc(F)c(CO)c2)c1", "note": "(relative stereo)", "melting point": "137 to 138"}, {"smiles": "O=C(O)COc1cc2cc(C3CCCC3)sc2c(Cl)c1Cl", "melting point": "173 to 174"}, {"smiles": "Cc1ccc(OC(=O)n2c3c(c(=O)n(C4CCCCO4)c2=O)CCC3)cc1", "note": "(stereo not given)", "melting point": 136}, {"smiles": "COc1nc(NC(=O)NS(=O)(=O)c2ccccc2OC(F)F)nc(N(C)C)n1", "melting point": "171 to 172"}, {"smiles": "CCOC(=O)c1cc(-c2ccc(-c3ccco3)cc2)n(-c2ccc(S(C)(=O)=O)cc2)n1", "melting point": 181}, {"smiles": "O=c1[nH]c(-c2csc3ccccc23)nc2ccc(N3CCOCC3)cc12", "melting point": "> 300"}, {"smiles": "CC/C(=C(\\c1ccc(I)cc1)c1ccc(OCCCCCS(=O)CCCC(F)(F)C(F)(F)F)cc1)c1ccccc1", "note": "(stereo not given)", "melting point": "85 to 87"}, {"smiles": "COc1ccc2ccc(N)cc2c1", "melting point": 157}, {"smiles": "CCOC(=O)C(C(=O)C=CC(C)Oc1ccc(Oc2ccc(C(F)(F)F)cc2)cc1)C(=O)OCC", "note": "(stereo not given)", "melting point": "52 to 55"}, {"smiles": "O=C1N(Cc2cccnc2C(F)(F)F)c2ccccc2C12COc1cc3c(cc12)OCCO3", "note": "(stereo not given)", "melting point": "219 to 220"}, {"smiles": "O=C(Cc1ccccc1)N[C@@H](Cc1ccc(OCCc2coc(-c3ccccc3)n2)cc1)C(=O)O", "melting point": "146 to 151"}, {"smiles": "COc1cc(Nc2nc3cccc(-c4ccc(NS(C)(=O)=O)cc4)c3o2)cc(OC)c1OC", "melting point": "222 to 225"}, {"smiles": "COC(=O)C1=Cc2ccc(O)cc21", "melting point": "108 to 109"}, {"smiles": "Cc1cc(C(=O)c2ccc(Cl)cc2)ccc1N", "melting point": "113 to 116"}, {"smiles": "O=C(CCCCC1SCC2NC(=O)NC21)NCCOCCOCCN1C(=O)C(Br)=C(Br)C1=O", "note": "(stereo not given)", "melting point": "100 to 102"}, {"smiles": "NC(=O)NC1CCC(O)c2ccccc21", "note": "(stereo not given)", "melting point": "170 to 176"}, {"smiles": "O=S(=O)(NCCCOc1cccc2nccn12)c1ccccc1", "melting point": "155 to 156"}, {"smiles": "CC(=O)OC1CSC(Oc2cccc(-c3ccsc3)c2)C(OC(C)=O)C1OC(C)=O", "note": "(stereo not given)", "melting point": 111}, {"smiles": "CC(=O)NN=C(C(=O)NN)c1ccccc1", "melting point": 177}, {"smiles": "CC(C)=CCNc1ncnc2nc(N(C)C)[nH]c12", "melting point": "246 to 249"}, {"smiles": "COc1ccc2cc3ccccc3cc2c1", "melting point": "182 to 184"}, {"smiles": "CCc1nc2cccc(C)c2c(=O)n1C1CCC(=O)NC1=O", "note": "(stereo not given)", "melting point": "228 to 230"}, {"smiles": "OCC12CC3CC(CC(C3)C1O)C2", "note": "(stereo not given)", "melting point": "172 to 174"}, {"smiles": "COc1ccc2c(c1)CCC1=C2CCCN1C(C)=O", "melting point": "119 to 120"}, {"smiles": "CC(C)C1Cc2cnc3c(c2C1=O)CCO3", "note": "(stereo not given)", "melting point": "68 to 69"}, {"smiles": "CCCCCCCCCCCCCCOc1ccc(C(=O)N(Cc2ccccn2)C(C)=O)cc1", "melting point": "68 to 70"}, {"smiles": "CCOC(=O)c1c(Cn2cnnc2)nc2sc(C)c(C)c2c1-c1ccc(Cl)cc1", "melting point": "138 to 139"}, {"smiles": "BrCc1cccc2c(-c3ccccc3)onc12", "melting point": "125 to 126"}, {"smiles": "O=P(O)(CCc1ccccc1)CCc1ccccc1", "melting point": "84 to 87"}, {"smiles": "CC(C)Oc1ccc(-c2ccc(C#N)cc2)cc1C=O", "melting point": "94 to 96"}, {"smiles": "COC(=O)c1ccc(C(=O)N2CCN(c3ncccc3[N+](=O)[O-])CC2)cc1", "melting point": "149 to 152"}, {"smiles": "CCNCC1CCN(c2nc3c(cc2F)c(=O)c(C(=O)O)cn3C2CC2)C1", "note": "(stereo not given)", "melting point": "268 to 270"}, {"smiles": "CCCCCCCCCCCCCCCCCCN1C(=O)CC(c2cc(C(C)(C)C)c(O)c(C(C)(C)C)c2)C1=O", "note": "(stereo not given)", "melting point": "70 to 73"}, {"smiles": "C=C[Si]12OC3CC(CC(C3)O1)O2", "melting point": 116}, {"smiles": "C/C(=N\\O)c1cccc(NC(=O)NCC(=O)N(CC(=O)N(C)c2ccccc2)c2ccccc2)c1", "melting point": 170}, {"smiles": "CC(=O)N1CCc2ccc(SCc3ccccc3)c(N)c2C1", "melting point": "133 to 136"}, {"smiles": "Cc1nccn1CC#CCN1CCCC1=O", "melting point": "81 to 85"}, {"smiles": "N#Cc1ccc2oc(-c3ccccc3)cc2c1", "melting point": "138 to 141"}, {"smiles": "O=[N+]([O-])c1cc(-c2ccoc2)ccc1Nc1cccc(-n2ccnc2)n1", "melting point": "173 to 174"}, {"smiles": "COCCOc1ccc(CCCOc2nn(C)cc2CC(=O)O)c(Oc2ncc(C(F)(F)F)cc2Cl)c1", "melting point": "127 to 129"}, {"smiles": "Cc1[nH]c(C(=O)O)c(C)c1C=O", "melting point": "233 to 237"}, {"smiles": "O=C(CCC(=O)N1CCC(c2ccc(Cl)cc2)CC1)c1ccc2c(c1)CNC2", "melting point": "133 to 134"}, {"smiles": "Cc1oc(-c2ccccc2)nc1CCOc1ccc(C[C@H](NC(=O)C=Cc2cccc(C(F)(F)F)c2)C(=O)O)cc1", "melting point": "214 to 216"}, {"smiles": "COc1ccccc1Nc1nc(-c2ccccc2)c(C(=O)c2sc(Nc3ccccc3OC)nc2-c2ccccc2)s1", "melting point": "> 285"}, {"smiles": "Cc1nc(N2CCc3ccccc3CC2)c(C#N)c(=O)n1NCC(F)(F)F", "melting point": "144 to 146"}, {"smiles": "CCn1nc(Br)c([N+](=O)[O-])c1CCN", "melting point": "84.9 to 87.4"}, {"smiles": "CC(C)(C)c1ccc(CCC(=O)N2C(=O)OC[C@@H]2Cc2ccccc2)cc1", "melting point": "123 to 126"}, {"smiles": "CN(CCOc1ccc(CON=C(CCC(=O)O)c2ccccc2)cc1)c1ncccn1", "melting point": "72 to 73"}, {"smiles": "CC1=C(C(=O)OC(C)C)C(c2cccc([N+](=O)[O-])c2)N(C(=O)N(C)C)C(N)=N1", "note": "(stereo not given)", "melting point": "202 to 203"}, {"smiles": "CN(Cc1ccccc1)C(=O)c1cc2ccccc2c(-c2ccccc2Cl)n1", "melting point": 128}, {"smiles": "CC(=O)N[C@@H](CCc1ccc([N+](=O)[O-])cc1)C(=O)O", "melting point": "211 to 213"}, {"smiles": "Cc1ccc(S(=O)(=O)N2CCc3c(sc(N)c3C(=O)c3ccccc3)C2)cc1", "melting point": "165 to 167"}, {"smiles": "CCOc1c2c(nc3c1cnn3CC)C(=O)c1ccccc1CC2", "melting point": "150 to 152"}, {"smiles": "CC(C)(C)c1ccccc1N1CCN(C(=O)Nc2ccccc2)CC1", "melting point": "68 to 72"}, {"smiles": "CC(C)(C)OC(=O)N1CCN(c2ccc3oc(C(N)=O)cc3c2)CC1", "melting point": "198 to 200"}, {"smiles": "O=c1nc(-c2cccc(SCc3ccccc3)n2)sc2ccccc12", "melting point": "227 to 228"}, {"smiles": "Cc1c(CCC(=O)O)cc(C(C)(C)C)c(O)c1C", "melting point": "191 to 193"}, {"smiles": "COc1ccc(-c2nnc3c4ccccc4c(Nc4ccc(-c5nnn(C)n5)cc4)nn23)cc1", "melting point": "289 to 293"}, {"smiles": "CCc1ccc2c(c1)C1CN(CCCC(=O)c3ccc(F)cc3)CCC1N2", "note": "(stereo not given)", "melting point": "192 to 195"}, {"smiles": "CCOC(=O)c1cn(C2CC2)c2c(F)c(/C=C\\c3cc(Cc4cnc(N)nc4N)cc(OC)c3OC)c(F)cc2c1=O", "melting point": "> 220"}, {"smiles": "Cn1cncc1C(c1ccc(Cl)cc1)c1ccc(N)c(C(=O)c2cccc(Cl)c2)c1", "note": "(stereo not given)", "melting point": 179}, {"smiles": "Cc1ncoc1C(C)(O)c1ccsc1", "note": "(stereo not given)", "melting point": "87 to 89"}, {"smiles": "O=C(O)c1ccc(-c2cccc3cc(Cc4cccc(C(F)(F)F)c4)sc23)cc1", "melting point": "200 to 201"}, {"smiles": "OCc1cccc(Nc2nc(Oc3ccccc3)nc(Oc3ccccc3)n2)c1", "melting point": "49 to 52"}, {"smiles": "O=C(Nc1cccc(C(F)(F)F)c1)Nc1ccc2c(c1)OC(F)(F)O2", "melting point": "187 to 191"}, {"smiles": "CSc1nc(N)nc(-c2ccccc2)c1-c1ccc(=O)n(C(C)C)n1", "melting point": "221 to 222"}, {"smiles": "O=C(OCc1ccccc1)N1CC[C@@H](Oc2ccc([N+](=O)[O-])cc2)[C@H](O)C1", "note": "(relative stereo)", "melting point": "179 to 180"}, {"smiles": "C1=C(c2c[nH]cn2)c2ccccc2C1", "melting point": "232 to 240"}, {"smiles": "CCOc1ccc(C(=O)CCC(=O)OC)cc1OCC", "melting point": "84 to 85"}, {"smiles": "CN(C)Cc1c(-c2ccc3sc(=O)n(C)c3c2)nc2ccccn12", "melting point": "137 to 140"}, {"smiles": "O=C(O)C(Cc1ccccc1)=NNc1ccc(Cl)c(Cl)c1", "melting point": "166 to 167"}, {"smiles": "CN(C)c1c(-c2ccccc2)sc2ccccc12", "melting point": "84 to 86"}, {"smiles": "COc1cc(OC)nc(Oc2cccc(Cl)c2C(=O)Oc2ccc([N+](=O)[O-])cc2)n1", "melting point": "130 to 132"}, {"smiles": "CCC1(CC)c2cc(-c3ccc(-c4ccc(O)cc4)cc3)ccc2-c2ccc(-c3ccc(-c4ccc(O)cc4)cc3)cc21", "melting point": "> 300"}, {"smiles": "CC1CN(c2ccc(F)cc2)N=C1NC=O", "note": "(stereo not given)", "melting point": "166 to 168"}, {"smiles": "CC(C)(C)OC(=O)NCCN1C(=O)c2ccccc2C1=O", "melting point": "143 to 145"}, {"smiles": "COc1cccc(CSCCNC(=O)c2c([N+](=O)[O-])cccc2[N+](=O)[O-])c1", "melting point": "69 to 71"}, {"smiles": "COc1ccccc1CNC(=O)c1ccc2nc(N[C@@H]3CCc4ccccc43)ccc2c1", "melting point": 168}, {"smiles": "COc1ccccc1CC1NC(=O)NC1=O", "note": "(stereo not given)", "melting point": 186}, {"smiles": "CCCc1nn(CC)c2c(=O)[nH]c(-c3cc(S(=O)(=O)Cl)ccc3OCC)nc12", "melting point": "170 to 172"}, {"smiles": "CCOc1ccc2c(c1)C(O)Cc1c(Cl)cccc1S2", "note": "(stereo not given)", "melting point": "88 to 90"}, {"smiles": "Nc1ccc(Cl)cc1-c1ncn[nH]1", "melting point": "170 to 175"}, {"smiles": "CCOC(=O)c1cc(=O)c2ccc(N)cc2o1", "melting point": "192 to 194"}, {"smiles": "CN1CCN(c2ccnc3c(NC(=O)c4c(Cl)cccc4Cl)cc(C(F)(F)F)cc23)C1=O", "melting point": "> 285"}, {"smiles": "O=C(c1ccc(-c2ccc(OCCCN3CCCCC3)cc2)cc1)N1CCCCC1", "melting point": 122}, {"smiles": "O=C1CCCc2c1c1cccc3c1n2CC3", "melting point": "208 to 210"}, {"smiles": "Cc1cccc(C2=NN(C(=O)c3cccnc3)CC2)c1", "melting point": "99 to 100"}, {"smiles": "Cc1ccnc2c1nc(CO)n2C", "melting point": "> 300"}, {"smiles": "CCC1(C)Cc2c(C)c(Cl)c(C=O)c(C)c2C1", "note": "(stereo not given)", "melting point": "89 to 90"}, {"smiles": "CC(C)(C)[S@](=O)N1CCC[C@@H]1c1ccc(Cl)cc1", "melting point": 80}, {"smiles": "COc1ccc(C2CN(Cc3ccc4ccccc4n3)C(=O)N(Cc3ccc4ccccc4n3)C2)cc1OC1CC2CCC1C2", "note": "(stereo not given)", "melting point": "135 to 136"}, {"smiles": "CCn1nc2c(N)nc3ccccc3c2c1CC(C)(C)C", "melting point": 240}, {"smiles": "COC(=O)c1cc(C(=O)N(C)C)c2cc(Cc3ccc(F)cc3)cnc2c1O", "melting point": "219 to 220"}, {"smiles": "O=C1c2ccccc2-c2c1c(=O)[nH]c1ccccc21", "melting point": "> 290"}, {"smiles": "CCCCCCC(=O)CCCC=O", "melting point": "33 to 34"}, {"smiles": "CCSc1nc2c(C)ccnc2n1Cc1ccc(C2(Br)CC(C#N)=CN2C)cc1", "note": "(stereo not given)", "melting point": "161 to 163"}, {"smiles": "COC(=O)C(c1ccccc1)N1CCN(c2ccc(NC(=O)c3ccccc3-c3ccccc3)cc2)CC1", "note": "(stereo not given)", "melting point": 125}, {"smiles": "COc1ccc(Cl)cc1C1(F)C(=O)Nc2cc(C(F)(F)F)cc(C(F)(F)F)c21", "note": "(stereo not given)", "melting point": "262 to 264"}]}]}
